Read-outs that look alike come from different tables or passages of the source.
Key:
[1] = SOD-like activity: inhibition of superoxide reduction of nitroblue tetrazolium (DMSO-KO2 / xanthine-xanthine oxidase); assay type: biochemical; details: for IC50 / Percent Reactivity (SOD-like activity): Table I; for IC50: read-out: Concentration: compound required for 50% inhibition of superoxide reduction of nitroblue tetrazolium; for Percent Reactivity (SOD-like activity): relative to Cu-Zn SOD = 100
[2] = cited from earlier work
[3] = Rate of superoxide dismutation; assay type: biochemical; details: Table I
Excerpt: The enzyme superoxide dismutase (SOD) plays a significant role in the defense against oxygen toxicity in aerobic organisms. Superoxide dismutase catalyzes the dismutation of O2^-, as follows:.
2 ^- O-O^. +2H^+ →H2 O2 +^. O-O^.
**Weser, et al., In "Inflammatory Diseases and Copper", Sorenson (ed.),
Humana Press: Clifton, New Jersey (1982), p. 513

[4] = system: lethally irradiated mice; assay: Radioprotection: survival of lethally irradiated (60Co) mice; assay type: in vivo, female B6CBFl mice
Experimental: One group of 22-control and two groups of 24-treated 8 to 10 week old female B6CBFl mice (Cumberland View Farms, Clinton, Tennessee) were used. Control animals were given a subcutaneous (sc) injection of 0.3 ml of vehicle (0.25% Tween 80 in 0.9% pyrogen-free sterile saline) 24 hours before irradiation. One treatment group was given a single sc injection of 0.49 mM/kg of Cu(II)(3,5-dips)2 in 0.3 ml of vehicle 3 hours before irradiation and the other group was given the same treatment 24 hours before irradiation.
This radiation dose was measured with an electrometer connected to 0.05 ml NBS calibrated ion chambers positioned inside wax phantom mice placed in plexiglass cages. The tissue to air ratio for these phantom mice has been determined to be 97 percent. Control and treated mice were housed 5 mice per cage and fed mouse chow and water ad libitum for the 30 day observation period.

[5] = system: rats; assay: Acute toxicity in rats (subcutaneous); assay type: in vivo
Experimental: (§1) The particular embodiment described in complete detail herein concerns the use of Cu(II)(3,5-dips)2. […] A minimum prophylatic dose would be about 0.001 mg/kg, while a therapeutic dose would range from about 1 mg to 100 mg/kg, depending upon the radiation dose. Therapeutic doses would be initiated about two weeks before radiotherapy, and would continue as necessary after the radiation treatment. For cases of accidental exposure, treatment would be initiated immediately after exposure and continued as necessary thereafter. Prophylactic doses would be taken on a continuing basis, for example a daily basis, as long as the recurrent radiation exposure continued. In any of these cases, the route of administration might be oral, topical, rectal or parenteral (e.g., intramuscular, intravenous, subcutaneous, or intraperitoneal).
Copper 3,5-diisopropylsalicylate was synthesized according to the method of Sorenson, J. Med. Chem. 19:135 (1976), which is incorporated herein by reference.

[6] = system: mice; assay: Acute toxicity in mice (subcutaneous); assay type: in vivo; details: subcutaneous injection, 10080 min
Experimental: as §1

[7] = system: human beings; assay: Predicted toxicity in human beings by extrapolation; details: per body weight
Experimental: as §1

[8] = pH 7.0; cited from earlier work
[9] = pH 12; cited from earlier work
[10] = system: patients; details: ongoing clinical trials; cited from earlier work
[11] = 0.49 mM/kg sc 3 hours before 10 Gy, 30 day observation
[12] = 0.49 mM/kg sc 24 hours before 10 Gy, 30 day observation

Molecule: bovine SOD: pure bovine SOD
- sensitivity of the assay, ug SOD per unit of activity ([1]; pure bovine SOD, per unit of activity, pH 7.8): 0.85 µg

Molecule: CC(=O)Oc1ccccc1C(=O)[O-].CC(=O)Oc1ccccc1C(=O)[O-].CC(=O)Oc1ccccc1C(=O)[O-].CC(=O)Oc1ccccc1C(=O)[O-].[Cu+2].[Cu+2].c1ccncc1.c1ccncc1 [Cu(II)2 (acetylsalicylate)4 (pyridine)2]
- IC50 [1]: 2700 nM
- Percent Reactivity (SOD-like activity) [1]: 0.32%

Molecule: superoxide dismutase: enzyme that catalyzes the dismutation of O2^-; native SOD has a molecular weight of about 32,000 daltons
- rate of O2^- dismutation, k ([2]; Czapski 1971): 1.3e+09 M⁻¹ s⁻¹

Molecule: Cu(II)2 (acetylsalicylate)4
- superoxide scavenging (in words) [1]: superoxide scavengers
- IC50 [1]: 3100 nM
- Percent Reactivity (SOD-like activity) [1]: 0.043%

Molecule: CC(=O)Oc1ccccc1C(=O)[O-].CC(=O)Oc1ccccc1C(=O)[O-].CC(=O)Oc1ccccc1C(=O)[O-].CC(=O)Oc1ccccc1C(=O)[O-].CS(C)=O.CS(C)=O.CS(C)=O.CS(C)=O.[Cu+2].[Cu+2] [Cu(II)2 (acetylsalicylate)4 (dimethylsulfoxide)4]
- superoxide scavenging (in words) [1]: superoxide scavengers

Molecule: O=C(O)c1ccccc1[O-].O=C(O)c1ccccc1[O-].[Cu+2] [Cu(II)(salicylate)2]
- Rate of superoxide dismutation ([2]; Table I, footnote ** (Weser et al.)): 1.6 × 10 M^-1 s^-1
- superoxide scavenging (in words) [1]: superoxide scavengers
- IC50 [1]: 4600 nM
- Percent Reactivity (SOD-like activity) [1]: 0.65%

Molecule: copper 3,5-diisopropylsalicylate [Cu(II)(3,5-dips)2]
- Rate of superoxide dismutation [3]: 1e+09 to 2e+09 M⁻¹ s⁻¹
- day post-irradiation after which none died ([4]; 0.49 mM/kg sc 3 hours before 10 Gy): 18 days
- number of surviving mice [4, 11]: 8 mice
- survival [4, 11]: Thirty-three
- day post-irradiation after which none died ([4]; 0.49 mM/kg sc 24 hours before 10 Gy): 19 days
- number of surviving mice [4, 12]: 14 mice
- survival [4, 12]: Fifty-eight
- survival ([4]; pretreatment interval 3 h, restated in comparison with Cu-Zn SOD): 33%
- survival ([4]; pretreatment interval 24 h, restated in comparison with Cu-Zn SOD): 58%
- survivors ([4]; similarly treated mice, irradiated with 12 Gy): no survivors
- protection compared with Cu-Zn SOD (in words) ([4]; vs Cu-Zn SOD data of Petkau, different conditions): much greater protection
- LD50 ([5]; subcutaneous): 240 +33 mg/kg
- LD50/7 ([5]; subcutaneous injection, 10080 min): 240 mg/kg
- LD50/7 [6]: at least 280 mg/kg
- predicted LD50 in human beings [7]: approximately 250 mg/kg
- superoxide scavenging (in words) [1]: superoxide scavengers
- IC50 [1]: 2900 nM
- efficiency in disproportionating superoxide compared with Cu-Zn SOD (in words) ([1]; based on Table I): not as efficient as Cu-Zn SOD
- mean SOD activity ([1]; modified assay, DMSO-KO2, pH 7.8): 17,400±1,800 units per milligram
- Percent Reactivity (SOD-like activity) [1]: 0.70%

Molecule: CC(C)(C)c1cc(C(=O)[O-])c(O)c(C(C)(C)C)c1.CC(C)(C)c1cc(C(=O)[O-])c(O)c(C(C)(C)C)c1.[Cu+2] [Cu(II)(3,5-ditertiarybutylsalicylate)2]
- superoxide scavenging (in words) [1]: superoxide scavengers
- IC50 [1]: 6200 nM
- Percent Reactivity (SOD-like activity) [1]: 0.74%

Molecule: CC(=O)Oc1ccccc1C(=O)[O-].CC(=O)Oc1ccccc1C(=O)[O-].CC(=O)Oc1ccccc1C(=O)[O-].CC(=O)Oc1ccccc1C(=O)[O-].CS(C)=O.CS(C)=O.[Cu+2].[Cu+2] [Cu(II)2 (acetylsalicylate)4 (DMSO)2]
- IC50 [1]: 2800 nM
- Percent Reactivity (SOD-like activity) [1]: 0.69%

Molecule: O=C([O-])CN(CCN(CC(=O)[O-])CC(=O)O)CC(=O)O.[Na+].[Na+] [Na2 EDTA]
- Rate, Cu(II)(L)2 + HO^. [8]: 4e+09 M⁻¹ s⁻¹
- Rate, Cu(II)(L)2 + e^- aq [9]: 1e+10 M⁻¹ s⁻¹

Molecule: CC(=O)Oc1ccccc1C(=O)[O-].CC(=O)Oc1ccccc1C(=O)[O-].CC(=O)Oc1ccccc1C(=O)[O-].CC(=O)Oc1ccccc1C(=O)[O-].[Cu+2].[Cu+2].c1ccncc1.c1ccncc1.c1ccncc1.c1ccncc1 [Cu(II)2 (acetylsalicylate)4 (pyridine)4]
- superoxide scavenging (in words) [1]: superoxide scavengers

Molecule: NCCCNCCSP(=O)(O)O [WR2721, S-2-(3-aminopropylamino) ethyl-phosphorothioic acid]
- undesirable side effects [10]: emesis, hypertension, hypotension, somnolence and allergy

Source: patent US4657928A, “Organic copper complexes as radioprotectants” (priority 1984, dated 1987)
